Data taken from PubChem BioAssay AID1963827 (Molecular Pharmacology Branch, DTP, NCI, 2024).

Test system: 994946-033-R-J1-PDC complex spheroid viability
Test: Anticancer human tumor 994946-033-R-J1-PDC patient-derived melanoma cell line growth inhibition [POLQ]
Settings: for IC50: curve of first compound; for viability, T/C: stronger effect = lower value
Method in brief: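 Patient-derived tumour cells were co-cultured with HUVEC and mesenchymal stem cells as multicellular spheroids at 37 °C. They were treated with POLQ inhibitors (novobiocin, ART-558, RP6685) alone or combined with other agents. Top concentrations were at or near clinical Cmax (otherwise 10 microM; SN-38 at 1 microM), decreasing in half-log steps.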

[1] = second compound 0.0316 µM, first compound 0.0316 µM
[2] = second compound 0.0316 µM, first compound 0.1 µM
[3] = second compound 0.0316 µM, first compound 0.316 µM
[4] = second compound 0.0316 µM, first compound 1 µM
[5] = second compound 0.0316 µM, first compound 3.16 µM
[6] = second compound 0.0316 µM, first compound 10 µM
[7] = second compound 0.1 µM, first compound 0.0316 µM
[8] = second compound 0.1 µM, first compound 0.1 µM
[9] = second compound 0.1 µM, first compound 0.316 µM
[10] = second compound 0.1 µM, first compound 1 µM
[11] = second compound 0.1 µM, first compound 3.16 µM
[12] = second compound 0.1 µM, first compound 10 µM
[13] = second compound 0.316 µM, first compound 0.0316 µM
[14] = second compound 0.316 µM, first compound 0.1 µM
[15] = second compound 0.316 µM, first compound 0.316 µM
[16] = second compound 0.316 µM, first compound 1 µM
[17] = second compound 0.316 µM, first compound 3.16 µM
[18] = second compound 0.316 µM, first compound 10 µM
[19] = second compound 1 µM, first compound 0.0316 µM
[20] = second compound 1 µM, first compound 0.1 µM
[21] = second compound 1 µM, first compound 0.316 µM
[22] = second compound 1 µM, first compound 1 µM
[23] = second compound 1 µM, first compound 3.16 µM
[24] = second compound 1 µM, first compound 10 µM
[25] = second compound 3.16 µM, first compound 0.0316 µM
[26] = second compound 3.16 µM, first compound 0.1 µM
[27] = second compound 3.16 µM, first compound 0.316 µM
[28] = second compound 3.16 µM, first compound 1 µM
[29] = second compound 3.16 µM, first compound 3.16 µM
[30] = second compound 3.16 µM, first compound 10 µM
[31] = second compound 10 µM, first compound 0.0316 µM
[32] = second compound 10 µM, first compound 0.1 µM
[33] = second compound 10 µM, first compound 0.316 µM
[34] = second compound 10 µM, first compound 1 µM
[35] = second compound 10 µM, first compound 3.16 µM
[36] = second compound 10 µM, first compound 10 µM
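Also: spheroids exposed to drugs for 7 days.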
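For viability, T/C in this document: 100% = DMSO vehicle treated spheroids.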

## CCCS(=O)(=O)Nc1ccc(F)c(C(=O)c2c[nH]c3ncc(-c4ccc(Cl)cc4)cc23)c1F + Nc1ccc(C#CCN(C(=O)Cc2ncc(C(F)(F)F)cc2C(F)(F)F)c2ccc(F)cc2)nn1
Second compound 0.0316 µM
  IC50: 6.87 µM
Second compound 0.1 µM
  IC50: 6.95 µM
Second compound 0.316 µM
  IC50: 6.8 µM
Second compound 1 µM
  IC50: 7.46 µM
Second compound 3.16 µM
  IC50: 7.31 µM
Second compound 10 µM
  IC50: 6.3 µM
[1]
  viability, T/C: 64.2%
[2]
  viability, T/C: 88%
[3]
  viability, T/C: 102%
[4]
  viability, T/C: 75.3%
[5]
  viability, T/C: 107%
[6]
  viability, T/C: 31.9%
[7]
  viability, T/C: 99.6%
[8]
  viability, T/C: 93%
[9]
  viability, T/C: 95.9%
[10]
  viability, T/C: 115%
[11]
  viability, T/C: 100%
[12]
  viability, T/C: 26.8%
[13]
  viability, T/C: 80.6%
[14]
  viability, T/C: 98.9%
[15]
  viability, T/C: 93.9%
[16]
  viability, T/C: 118%
[17]
  viability, T/C: 84.5%
[18]
  viability, T/C: 32.5%
[19]
  viability, T/C: 84.5%
[20]
  viability, T/C: 94.2%
[21]
  viability, T/C: 114%
[22]
  viability, T/C: 124%
[23]
  viability, T/C: 108%
[24]
  viability, T/C: 31.3%
[25]
  viability, T/C: 95.5%
[26]
  viability, T/C: 134%
[27]
  viability, T/C: 99.2%
[28]
  viability, T/C: 127%
[29]
  viability, T/C: 90.9%
[30]
  viability, T/C: 34.6%
[31]
  viability, T/C: 114%
[32]
  viability, T/C: 85%
[33]
  viability, T/C: 85.9%
[34]
  viability, T/C: 96.2%
[35]
  viability, T/C: 95.6%
[36]
  viability, T/C: 19.6%

## CC1COCCN1c1cc(C2(O)CC3CCC(C2)O3)c2cnn(-c3ccn[nH]3)c2n1 (centres undefined) + Cc1cccc(N(C)C(=O)C2C(O)CCN2c2nc(C)cc(C(F)(F)F)c2C#N)c1
Second compound 0.0316 µM
  IC50: < 0.0316 µM
Second compound 0.1 µM
  IC50: 0.0379 µM
Second compound 0.316 µM
  IC50: < 0.0316 µM
Second compound 1 µM
  IC50: < 0.0316 µM
Second compound 3.16 µM
  IC50: 0.0333 µM
Second compound 10 µM
  IC50: < 0.0316 µM
[1]
  viability, T/C: 49.5%
[2]
  viability, T/C: 34.5%
[3]
  viability, T/C: 14.3%
[4]
  viability, T/C: 15.3%
[5]
  viability, T/C: 14.6%
[6]
  viability, T/C: 5.33%
[7]
  viability, T/C: 52.7%
[8]
  viability, T/C: 37%
[9]
  viability, T/C: 18.8%
[10]
  viability, T/C: 12.3%
[11]
  viability, T/C: 12%
[12]
  viability, T/C: 4%
[13]
  viability, T/C: 46.8%
[14]
  viability, T/C: 26.4%
[15]
  viability, T/C: 14.6%
[16]
  viability, T/C: 18.4%
[17]
  viability, T/C: 12.7%
[18]
  viability, T/C: 2.62%
[19]
  viability, T/C: 42%
[20]
  viability, T/C: 23.1%
[21]
  viability, T/C: 20.9%
[22]
  viability, T/C: 17%
[23]
  viability, T/C: 12.5%
[24]
  viability, T/C: 3.16%
[25]
  viability, T/C: 51.6%
[26]
  viability, T/C: 27.2%
[27]
  viability, T/C: 23.2%
[28]
  viability, T/C: 13.5%
[29]
  viability, T/C: 12.7%
[30]
  viability, T/C: 10.9%
[31]
  viability, T/C: 47.1%
[32]
  viability, T/C: 38.4%
[33]
  viability, T/C: 18.7%
[34]
  viability, T/C: 23%
[35]
  viability, T/C: 9.14%
[36]
  viability, T/C: 5.05%
